Results taken from PMC3657136, “An antibacterial from Hypericum acmosepalum inhibits ATP-dependent MurE ligase from Mycobacterium tuberculosis” (International Journal of Antimicrobial Agents, 2012).
pIC50: −log10 of the molar value.

Target: T1, ATP-dependent MurE ligase (Mycobacterium tuberculosis, UniProt P9WJL3)
T1 sequence (P9WJL3 1-535): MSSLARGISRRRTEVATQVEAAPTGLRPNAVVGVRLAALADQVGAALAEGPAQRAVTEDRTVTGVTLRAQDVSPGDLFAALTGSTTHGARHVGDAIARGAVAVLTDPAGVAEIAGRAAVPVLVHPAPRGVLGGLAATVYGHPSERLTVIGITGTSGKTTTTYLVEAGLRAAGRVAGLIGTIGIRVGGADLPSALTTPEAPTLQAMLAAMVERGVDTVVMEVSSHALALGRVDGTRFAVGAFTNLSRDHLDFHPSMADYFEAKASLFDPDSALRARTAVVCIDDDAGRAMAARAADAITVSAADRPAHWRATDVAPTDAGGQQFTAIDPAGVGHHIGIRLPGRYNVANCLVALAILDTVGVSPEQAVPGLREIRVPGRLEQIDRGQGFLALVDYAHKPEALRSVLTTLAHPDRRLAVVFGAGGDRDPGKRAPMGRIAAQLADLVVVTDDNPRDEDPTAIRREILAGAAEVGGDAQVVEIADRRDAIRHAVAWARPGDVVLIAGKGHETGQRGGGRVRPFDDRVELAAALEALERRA
Assay: biochemical

In the case of `C=CC(C)(C)c1c(OC)oc(-c2ccccc2)cc1=O` [compound 2, hyperenone A], the pIC50 was 3.49.
